Here are results for 1 compound from US12370188B2, “Formulations of dazucorilant, a glucocorticoid receptor modulator” (Corcept Therapeutics Incorporated, priority 2022, dated 2025).

This series is described as follows: Solubility of Compound I in water. Format: physicochemical. From the text: Compositions prepared by routine methods, even if able to solubilize small amounts of Compound I, have proven unstable with Compound I falling out of solution, or in which Compound I is found to be subject to rapid degradation, or incompatible with a pharmaceutically acceptable capsule.

In the case of `O=C(c1ccccn1)[C@]12Cc3cnn(-c4ccc(F)cc4)c3C=C1CCN(S(=O)(=O)c1ccc(C(F)(F)F)cc1)C2` [Compound I, (R)-(1-(4-fluorophenyl)-6-((4-(trifluoromethyl)phenyl)sulfonyl)-4,4a,5,6,7,8-hexahydro-1H-pyrazolo[3,4-g]isoquinolin-4a-yl)(pyridin-2-yl)methanone], the solubility in water entry is reported as “practically insoluble”.
